Measurements: US9987272B2, “Compound useful for the treatement of degenerative and inflammatory diseases” (GALAPAGOS NV, priority 2011, dated 2018)
Values joined by “and” are separate entries in the source; they are usually repeats but may differ in a detail not shown here. Identical values can stand only once.

How the values were obtained:
[1] = target: T1, Recombinant human JAK1 (catalytic domain, amino acids 866-1154) (Homo sapiens, UniProt P23458); assay: JAK1 Ulight-JAK1 peptide assay; type: biochemical; conditions: Ulight-JAK1(tyr1023) peptide, 7 μM ATP; individual determinations; read-out: IC50 against JAK1
T1 construct: catalytic domain, amino acids 866-1154; purchased Invitrogen PV4774
T1 sequence (P23458 866-1154): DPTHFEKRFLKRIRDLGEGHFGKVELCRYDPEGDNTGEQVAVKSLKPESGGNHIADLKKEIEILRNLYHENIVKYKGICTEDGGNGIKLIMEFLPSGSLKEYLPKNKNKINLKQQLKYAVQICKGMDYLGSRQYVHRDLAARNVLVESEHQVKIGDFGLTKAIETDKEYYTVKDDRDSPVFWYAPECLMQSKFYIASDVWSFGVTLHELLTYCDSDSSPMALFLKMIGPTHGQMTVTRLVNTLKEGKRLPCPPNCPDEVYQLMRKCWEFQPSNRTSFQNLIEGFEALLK
Procedure: Recombinant human JAK1 (catalytic domain, amino acids 866-1154; catalog number PV4774) was purchased from Invitrogen. 1 ng of JAK1 was incubated with 20 nM Ulight-JAK1(tyr1023) peptide (Perkin Elmer catalog number TRF0121) in kinase reaction buffer (25 mM MOPS pH6.8, 0.01% Brij-35, 5 mM MgCl2, 2 mM DTT, 7 μM ATP) with or without 4 μL containing test compound or vehicle (DMSO, 1% final concentration), in a total volume of 20 μL, in a white 384 Opti plate (Perkin Elmer, catalog number 6007290). […] Readout is performed using the Envision with excitation at 320 nm and measuring emission at 615 nm (Perkin Elmer). Kinase activity was calculated by subtracting relative fluorescence units (RFU) obtained in the presence of a positive control inhibitor (10 μM staurosporine) from RFU obtained in the presence of vehicle. The ability of a test compound to inhibit this activity was determined as: Percentage inhibition=((RFU determined for sample with test compound present−RFU determined for sample with positive control inhibitor) divided by (RFU determined in the presence of vehicle−RFU determined for sample with positive control inhibitor))*100.
A dose dilution series was prepared for the compound enabling the testing of dose-response effects in the JAK1 assay and the calculation of the IC50 for the compound. […] The data are expressed as the average IC50 from the assays±standard error of the mean.

[2] = target: T2, Recombinant human JAK2 (catalytic domain) (Homo sapiens, UniProt O60674); assay: JAK2 Ulight-JAK1 peptide assay; type: biochemical; conditions: Ulight-JAK1(tyr1023) peptide, 7.5 μM ATP; individual determinations; read-out: IC50 against JAK2
T2 construct: Recombinant human JAK2 catalytic domain (amino acids 808-1132; catalog number PV4210); purchased Invitrogen PV4210
T2 sequence (O60674 808-1132): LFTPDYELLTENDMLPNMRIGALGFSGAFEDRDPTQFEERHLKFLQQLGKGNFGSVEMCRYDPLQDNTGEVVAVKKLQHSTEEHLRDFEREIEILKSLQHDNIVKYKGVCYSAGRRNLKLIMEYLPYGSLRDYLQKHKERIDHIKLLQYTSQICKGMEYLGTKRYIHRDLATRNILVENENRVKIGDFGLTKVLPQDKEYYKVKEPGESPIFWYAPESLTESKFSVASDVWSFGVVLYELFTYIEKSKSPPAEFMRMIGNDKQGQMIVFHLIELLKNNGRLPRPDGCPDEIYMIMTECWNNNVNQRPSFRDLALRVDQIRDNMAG
Procedure: Recombinant human JAK2 (catalytic domain, amino acids 866-1154; catalog number PV4210) was purchased from Invitrogen. 0.0125 mU of JAK2 was incubated with 25 nM Ulight-JAK1(tyr1023) peptide (Perkin Elmer catalog number TRF0121) in kinase reaction buffer (25 mM HEPES pH7.0, 0.01% Triton X-100, 7.5 mM MgCl2, 2 mM DTT, 7.5 μM ATP) with or without 4 μL containing test compound or vehicle (DMSO, 1% final concentration), in a total volume of 20 μL, in a white 384 Opti plate (Perkin Elmer, catalog number 6007290). […] Readout is performed using the Envision with excitation at 320 nm and measuring emission at 615 nm (Perkin Elmer). Kinase activity was calculated by subtracting relative fluorescence units (RFU) obtained in the presence of a positive control inhibitor (10 μM staurosporine) from RFU obtained in the presence of vehicle. The ability of a test compound to inhibit this activity was determined as: Percentage inhibition=((RFU determined for sample with test compound present−RFU determined for sample with positive control inhibitor) divided by (RFU determined in the presence of vehicle−RFU determined for sample with positive control inhibitor))*100. […]

[3] = target: T3, Recombinant human JAK3 catalytic domain (Homo sapiens, UniProt P52333); assay: JAK3 inhibition assay; type: biochemical; conditions: polyGT substrate, 1 μM ATP, 33P-gamma-ATP; individual determinations; read-out: IC50 against JAK3
T3 construct: catalytic domain (amino acids 795-1124; catalog number 08-046); purchased Carna Biosciences 08-046
T3 sequence (P52333 795-1124): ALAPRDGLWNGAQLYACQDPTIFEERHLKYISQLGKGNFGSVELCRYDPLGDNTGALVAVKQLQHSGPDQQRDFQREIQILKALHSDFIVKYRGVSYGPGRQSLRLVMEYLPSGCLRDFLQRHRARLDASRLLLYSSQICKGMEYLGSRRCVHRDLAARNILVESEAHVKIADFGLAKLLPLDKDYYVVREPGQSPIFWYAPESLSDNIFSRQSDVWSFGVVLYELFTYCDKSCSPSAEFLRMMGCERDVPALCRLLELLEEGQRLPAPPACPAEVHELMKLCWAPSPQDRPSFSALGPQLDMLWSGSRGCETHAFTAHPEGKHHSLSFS
Procedure: Recombinant human JAK3 catalytic domain (amino acids 795-1124; catalog number 08-046) was purchased from Carna Biosciences. 0.5 ng JAK3 protein was incubated with 2.5 μg polyGT substrate (Sigma catalog number P0275) in kinase reaction buffer (25 mM Tris pH 7.5, 0.5 mM EGTA, 10 mM MgCl2, 2.5 mM DTT, 0.5 mM Na3VO4, 5 mM b-glycerolphosphate, 0.01% Triton X-100, 1 μM non-radioactive ATP, 0.25 μCi 33P-gamma-ATP (Perkin Elmer, catalog number NEG602K001MC) final concentrations) with or without 5 μL containing test compound or vehicle (DMSO, 1% final concentration), in a total volume of 25 μL, in a polypropylene 96-well plate (Greiner, V-bottom). After 45 min at 30° C., reactions were stopped by adding 25 μL/well of 150 mM phosphoric acid. […] 40 μL/well of Microscint-20 was added, the top of the plates was sealed and readout was performed using the Topcount (Perkin Elmer). Kinase activity was calculated by subtracting counts per min (cpm) obtained in the presence of a positive control inhibitor (10 μM staurosporine) from cpm obtained in the presence of vehicle. The ability of a test compound to inhibit this activity was determined as: Percentage inhibition=((cpm determined for sample with test compound present−cpm determined for sample with positive control inhibitor) divided by (cpm determined in the presence of vehicle−cpm determined for sample with positive control inhibitor))*100. […]

[4] = target: T4, Recombinant human TYK2 catalytic domain (Homo sapiens, UniProt P29597); assay: TYK2 inhibition assay; type: biochemical; conditions: polyGT substrate, 0.1 μM ATP, 33P-gamma-ATP; individual determinations; read-out: IC50 against TYK2
T4 construct: catalytic domain (amino acids 871-1187; catalog number 08-147); purchased Carna Biosciences 08-147
T4 sequence (P29597 871-1187): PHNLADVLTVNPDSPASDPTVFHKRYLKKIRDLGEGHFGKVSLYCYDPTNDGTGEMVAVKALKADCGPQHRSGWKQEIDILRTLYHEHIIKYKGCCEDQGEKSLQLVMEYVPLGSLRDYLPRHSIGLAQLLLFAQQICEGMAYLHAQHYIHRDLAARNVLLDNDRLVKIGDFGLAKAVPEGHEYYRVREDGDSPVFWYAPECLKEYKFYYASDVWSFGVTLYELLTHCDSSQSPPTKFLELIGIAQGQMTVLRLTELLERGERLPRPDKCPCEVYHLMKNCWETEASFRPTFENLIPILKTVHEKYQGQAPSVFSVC
Procedure: Recombinant human TYK2 catalytic domain (amino acids 871-1187; catalog number 08-147) was purchased from Carna biosciences. 4 ng of TYK2 was incubated with 12.5 μg polyGT substrate (Sigma catalog number P0275) in kinase reaction buffer (25 mM Hepes pH 7.2, 50 mM NaCl, 0.5 mM EDTA, 1 mM DTT, 5 mM MnCl2, 10 mM MgCl2, 0.1% Brij-35, 0.1 μM non-radioactive ATP, 0.125 μCi ^33P-gamma-ATP (Perkin Elmer, catalog number NEG602K001MC) final concentrations) with or without 5 μL containing test compound or vehicle (DMSO, 1% final concentration), in a total volume of 25 μL, in a polypropylene 96-well plate (Greiner, V-bottom). After 90 min at 30° C., reactions were stopped by adding 25 μL/well of 150 mM phosphoric acid. […] 40 μL/well of Microscint-20 was added, the top of the plates was sealed and readout was performed using the Topcount (Perkin Elmer). Kinase activity was calculated by subtracting counts per min (cpm) obtained in the presence of a positive control inhibitor (10 μM staurosporine) from cpm obtained in the presence of vehicle. The ability of a test compound to inhibit this activity was determined as: Percentage inhibition=((cpm determined for sample with test compound present−cpm determined for sample with positive control inhibitor) divided by (cpm determined in the presence of vehicle−cpm determined for sample with positive control inhibitor))*100. […]

TYK2 = target: T5, TYK2 (Homo sapiens, UniProt P29597); assay: TYK2 Ki determination assay; type: biochemical; conditions: Lineweaver-Burk plot, polyGT substrate, varying ATP
T5 construct: catalytic domain (amino acids 871-1187; catalog number 08-147); purchased Carna Biosciences 08-147
T5 sequence (P29597 871-1187): T4 sequence (P29597 871-1187)
Procedure: For the determination of Ki, different amounts of compound are mixed with the enzyme and the enzymatic reaction is followed as a function of ATP concentration. The Ki is determined by means of double reciprocal plotting of Km vs compound concentration (Lineweaver-Burk plot). TYK2 (Carna Biosciences, 08-147) was used at a final concentration of 160 ng/ml. The substrate was Poly(Glu,Tyr)sodium salt (4:1), MW 20 000-50 000 (Sigma, P0275) The reaction was performed in 25 mM Hepes pH 7.2, 50 mM NaCl, 0.5 mM EDTA, 1 mM DTT, 5 mM MnCl2, 10 mM MgCl2, 0.1% Brij-35 with varying concentrations of ATP and compound and stopped by addition of 150 mM phosphoric acid. Measurement of incorporated phosphate into the substrate polyGT was done by loading the samples on a filter plate (using a harvester, Perkin Elmer) and subsequent washing. Incorporated ^33P in polyGT is measured in a Topcount scintillation counter after addition of scintillation liquid to the filter plates (Perkin Elmer).

JAK-STAT = JAK-STAT signalling assay; type: cell-based; conditions: HeLa cells, pSTAT1(2)-luciferase reporter, human OSM 33 ng/mL; read-out: IC50 against JAK-STAT
Procedure: HeLa cells were maintained in Dulbecco's Modified Eagle's Medium (DMEM) containing 10% heat inactivated fetal calf serum, 100 U/mL penicillin and 100 μg/mL streptomycin. HeLa cells were used at 70% confluence for transfection. 20,000 cells in 87 μL cell culture medium were transiently transfected with 40 ng pSTAT1(2)-luciferase reporter (Panomics), 8 ng of LacZ reporter as internal control reporter and 52 ng of pBSK using 0.32 μL Jet-PEI (Polyplus) as transfection reagent per well in 96-well plate format. After overnight incubation at 37° C., 5% CO2, transfection medium was removed. 81 μL of DMEM+1.5% heat inactivated fetal calf serum was added. 9 μL compound at 10× concentration was added for 60 min and then 10 μL of human OSM (Peprotech) at 33 ng/mL final concentration. […]
40 μL of cell lysate was used to read β-galactosidase activity by adding 180 μL β-Gal solution (30 μl ONPG 4 mg/mL+150 μL β-Galactosidase buffer (0.06 M Na2HPO4, 0.04 M NaH2PO4, 1 mM MgCl2)) for 20 min. The reaction was stopped by addition of 50 μL Na2CO3 1 M. Absorbance was read at 405 nm.
Luciferase activity was measured using 40 μL cell lysate plus 40 μL of Steadylite® as described by the manufacturer (Perkin Elmer), on the Envision (Perkin Elmer). […]

CC(=O)Nc1cc2c(-c3ccc(CN4CCN(S(C)(=O)=O)CC4)c(F)c3)cccn2n1 [Compound 1]
IC50 [1]: 8.18 nM and 11.5 nM and 7.71 nM and 35.2 nM and 7.85 nM | IC50 [2]: 17.3 nM and 11.3 nM and 9.57 nM and 26 nM and 18.2 nM | IC50 [3]: 271 nM and 299 nM and 213 nM and 428 nM | IC50 [4]: 167 nM and 135 nM and 119 nM and 157 nM | Ki (TYK2): 110 nM | IC50 (JAK-STAT): 970 nM
